This passage reports IC50 results from patent publication US9102675B2, “3-Cyanoaryl-1H-pyrrolo[2,3-B] pyridine derivatives” (MERCK PATENT GMBH, priority 2011, dated 2015).

Bounds are passed on as bounds.

The test system of the assay is TBK1 + IKKε. As to the kind of experiment: TBK1 + IKKε cell assay: dose response inhibition of phospho-IRF3 @ Ser 386 in MDA-MB-468 cells after poly(I:C) stimulation. The following applies: Homo sapiens, MDA-MB-468, MDA-MB-468 cells, nuclear phospho-IRF3 Ser386, read-out: TBK1 + IKKε cell assay IC50. The assay is classed as cell-based. From the text: Dose response inhibition of phospho-IRF3 @ Ser 386 cell/MDAMB468/INH/PHOS/IMAG/pIRF3
Although TBK1 and IKKε are mainly known as key substances in the innate immune response, recent findings have indicated a role for TBK1 and IKKε in Ras-induced oncogenic transformation. TBK1 was identified as RaIB effector in the Ras-like (RaI)-guanine nucleotide exchange factor (GEF) pathway that is required for Ras-induced transformation. TBK1 directly activates IRF3 which, on phosphorylation, homodimerises and translocates to the nucleus, where it activates processes associated with inflammation, immune regulation, cell survival and proliferation.
This assay has been developed in order to assess the efficacy/potency of TBK1/IKKε inhibitor compounds based on the immunocytochemical detection of nucleus-localised phospho-IRF3, a target directly downstream of TBK1. Treatment with polyinosine-polycytidylic acid (poly(I:C), a synthetic analogue of double-stranded RNA (dsRNA), a molecular pattern associated with viral infection and recognised by Toll-like receptor 3 (TLR3) is used to induce TBK1/IKKε activity and IRF3 phosphorylation at Ser386.
Day 1: MDA-MB-468 cells are detached using HyQ-Tase, counted and sown into a 384-well plate with TC surface and clear bottom in a density of 10,000 cells per well in a total volume of 35 μl of complete medium. Alternatively, the cells are sown directly from frozen glass vials.
Day 2: The cells are pre-treated with inhibitor compounds for 1 h prior to poly(I:C) stimulation. After incubation for 2 h with poly(I:C), the cells are fixed in (para)formaldehyde (PFA) and permeabilised using methanol (MeOH). The cells are then blocked and incubated with an anti-pIRF3 antibody at 4° C. overnight.
Day 3: The primary antibody is washed off, an AlexaFluor488-conjugated secondary antibody is added, the cells are contrast-stained with propidium iodide, followed by image acquisition on an IMX ultra-high content reader.
Plating medium=culture medium: • RPMI 1640, Invitrogen #31870 • 10% of FCS, Invitrogen #10270-106 • 2 mM Glutamax, Invitrogen #35050-038 • 1 mM sodium pyruvate, Invitrogen #11360 • 1% of Pen/Strep • 37° C., 5% of CO2
Plates: 384-well bottom cell culture plates with black/clear bottom, Falcon #35 3962 or Greiner #781090
Subcultivation: HyQ-Tase, Thermo Scientific (HyClone) # SV30030.01
Poly(I:C) (LMW), Invitrogen # tlrl-picw (prepare 20 mg/ml stock solution in sterile PBS, denature 30 min 55° C. in a water bath, slowly cool to RT, store at −20° C. in aliquots)
a 10-point dose-response curve with MSC2119074A-4=BX-795 is included in each experiment
Formaldehyde (methanol-free, 16%, ultrapure EM grade), Polysciences #18814 (storage RT), final conc.: 4%
Goat serum, PAA # B15-035 (storage 4° C., long term −20° C.), final conc.: 10%
BSA (IgG- and protease-free, 30%), US-Biological # A1317 (storage 4° C., long term −20° C.), final conc.: 2%
Tween 20 detergent, Calbiochem #655204 (storage RT), (prepare 10% stock solution in water; final conc.: 0.1%)
Anti-pIRF-3 rabbit mAb, Epitomics #2526-B (storage −20° C.), final conc.: 1:2000 in PBS/2% of BSA
Alexa Fluor goat-anti-rabbit-488, Invitrogen # A11034 or # A11008 (storage 4° C., dark), final conc.: 1:2000 in PBS/2% of BSA/0.1% of Tween
Propidium iodide (PI), Fluka #81845, 1 mg/ml in H2O (storage 4° C., dark), final conc.: 0.2 μg/ml
(1) Sow 10,000 cells/well/35μof complete RPMI +10% FCS into 384-well bottom cell culture plates with black / clear bottom,
(2) Incubate for 2 h at room temperature on the bench, followed by further incubation for 22 h at 37° C., 5% of CO2 and 90% RH. […]

One may read the IC50 as the point on the concentration scale where inhibition reaches its midpoint. For the compound `N#Cc1cc(-c2c[nH]c3ncc(-c4cnn(C5CCNCC5)c4)cc23)ccc1OC1CCOCC1` [Compound A12, 5-[5-(1-piperidin-4-yl-1H-pyrazol-4-yl)-1H-pyrrolo[2,3-b]pyridin-3-yl]-2-(tetrahydropyran-4-yloxy)benzonitrile], the IC50 fell in the range of 300 to 3000 nM.
Consider `CC1(COc2ccc(-c3c[nH]c4ncc(-c5cnn(C6CCNCC6)c5)cc34)cc2C#N)COC1` [Compound A24, 2-[(3-Methyloxetan-3-yl)methoxy]-5-[5-[1-(4-piperidyl)pyrazol-4-yl]-1H-pyrrolo[2,3-b]pyridin-3-yl]-benzonitrile], for which the IC50 lay within 300 to 3000 nM.
Consider `COCCn1cc(-c2cnc3[nH]cc(-c4ccc(OC5CCOCC5)c(C#N)c4)c3c2)cn1` [Compound A10, 5-[5-[1-(2-methoxyethyl)pyrazol-4-yl]-1H-pyrrolo[2,3-b]pyridin-3-yl]-2-tetrahydropyran-4-yloxybenzonitrile], for which the IC50 was below 300 nM.
For `N#Cc1cc(-c2c[nH]c3ncc(-c4cnn(CCO)c4)cc23)ccc1OC1CCOCC1` [Compound A15, 5-[5-[1-(2-hydroxyethyl)pyrazol-4-yl]-1H-pyrrolo[2,3-b]pyridin-3-yl]-2-tetrahydropyran-4-yloxybenzonitrile], the IC50 is below 300 nM.
